Test systems include U-251; SW-620; SNB-75; TK-10; HCT-116; SR; HL-60; UACC-62; HT-29; K562; IGROV-1; HOP-62; SK-MEL-2; MDA-MB-231; UO-31; RPMI-8226; NCI-H522; PC-3; A498; Hs-578T.
Holding throughout (assay): DTP human tumour cell line panel, 48 h

Results on eight compounds are retold here after ChEMBL document CHEMBL1201862, “PubChem BioAssay data set” (2004).

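Results reflect a 48-hour exposure of cells in 96-well plates to compound at five concentrations. Here, GI50 denotes the concentration required for 50% inhibition of growth.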 Active and inactive are the calls of the source. No stated cut-off is given here; in the data, active = GI50 up to about 1.1 µM and inactive = higher. Where a SMILES comes first, the peptide text is derived from it. The star is where a group is joined. Boc = CC(C)(C)OC(=O)*

In the case of `COC(=O)C(Cc1c[nH]c2ccccc12)NC(=O)C(Cc1c[nH]c2ccccc12)NC(=O)C(Cc1c[nH]c2ccccc12)NC(=O)C(Cc1c[nH]c2ccccc12)NC(=O)C(Cc1c[nH]c2ccccc12)NC(=O)C(Cc1c[nH]c2ccccc12)NC(=O)C(Cc1c[nH]c2ccccc12)NC(=O)OC(C)(C)C` (stereo not given) (Boc-WWWWWWW-OMe; configuration not given here), the GI50 in the experiment on U-251 is 37.4 µM (inactive); with SW-620, > 100 µM (inactive); in the experiment with SNB-75, 17.3 µM (inactive); with TK-10, 43.6 µM (inactive); in the experiment on HCT-116, 33.3 µM (inactive); with SR it was 48 µM (inactive). The GI50 in the experiment with HL-60 was 41.7 µM (inactive); in the experiment with UACC-62 it was 51.5 µM (inactive); in the experiment with HT-29 it was > 100 µM (inactive); with K562, 64.1 µM (inactive); with IGROV-1 it was > 100 µM (inactive); with HOP-62 it was > 100 µM (inactive). Further, the GI50 in the experiment with SK-MEL-2 is 17.1 µM (inactive); in the experiment on MDA-MB-231, > 100 µM (inactive); in the experiment with UO-31, 44.9 µM (inactive); in the experiment with RPMI-8226 it was 46.7 µM (inactive); with NCI-H522 it was 54.6 µM (inactive); in the experiment on PC-3 it was > 100 µM (inactive).
Regarding `O/N=C1\CC2(N3CCOCC3)CCC1(c1ccccc1)CC2`, the GI50 with U-251, in the experiment with SW-620, with A498, in the experiment with SNB-75, in the experiment on TK-10 and with HCT-116 was > 100 µM (inactive) in each case. Also, the GI50 in the experiment with SR, in the experiment on HL-60, in the experiment on UACC-62, in the experiment on HT-29, with K562 and in the experiment with IGROV-1 was > 100 µM (inactive) in each case. Also, the GI50 in the experiment with HOP-62, with Hs-578T, in the experiment on SK-MEL-2, in the experiment with UO-31, in the experiment on RPMI-8226 and in the experiment on NCI-H522 was > 100 µM (inactive) each time. The GI50 in the experiment with PC-3 is > 100 µM (inactive).
Turning to `Cc1nnc2n1N=C(c1cc(F)c(Cl)cc1Cl)/C(=C/c1ccc(-c3ccc([N+](=O)[O-])cc3)o1)S2`, the GI50 with U-251 is 71.8 µM (inactive); in the experiment with SW-620, 39.6 µM (inactive); in the experiment with A498, > 100 µM (inactive); in the experiment on HCT-116, 46.1 µM (inactive); with SR it was 34.2 µM (inactive); in the experiment with HL-60, 46.3 µM (inactive). In addition, the GI50 was > 100 µM (inactive) in the experiment on UACC-62; 69.2 µM (inactive) with HT-29; 31.8 µM (inactive) in the experiment with K562; > 100 µM (inactive) in the experiment on IGROV-1; > 100 µM (inactive) in the experiment with HOP-62; > 100 µM (inactive) in the experiment with Hs-578T. Besides, the GI50 with SK-MEL-2 was 42.6 µM (inactive); in the experiment on UO-31 it was 85.3 µM (inactive); in the experiment with RPMI-8226, 34 µM (inactive); with NCI-H522 it was 32.7 µM (inactive); in the experiment on PC-3 it was 47.4 µM (inactive).
Consider `CCCCCCC(C)CC(CCCCCC)NCCOC(=O)c1ccc([N+](=O)[O-])cc1` (stereo not given), for which the GI50 was 13.4 µM (inactive) in the experiment with U-251; 13.6 µM (inactive) in the experiment with SW-620; 14.4 µM (inactive) in the experiment with SNB-75; 12 µM (inactive) in the experiment on TK-10; 11.7 µM (inactive) in the experiment with HCT-116; 14.5 µM (inactive) with UACC-62. Moreover, the GI50 in the experiment on HT-29 is 5.43 µM (inactive); with K562, < 0.01 µM (active); in the experiment with IGROV-1 it was 14.1 µM (inactive); in the experiment on HOP-62, 16.3 µM (inactive); with Hs-578T, 18.7 µM (inactive); in the experiment with SK-MEL-2, 15.8 µM (inactive). For the same compound, the GI50 in the experiment on MDA-MB-231 was 10.4 µM (inactive); in the experiment on UO-31 it was 11.6 µM (inactive); in the experiment with NCI-H522, 13.8 µM (inactive).
Turning to `CC(SC(=S)N1CCCC1)C(=O)Nc1nnc(-c2ccc(Cl)cc2)o1` (stereo not given), the GI50 in the experiment with U-251 was 29.9 µM (inactive); in the experiment with SW-620, 36.6 µM (inactive); in the experiment with A498, 34 µM (inactive); with SNB-75 it was 45.9 µM (inactive); in the experiment with TK-10, 50.4 µM (inactive); with HCT-116 it was 19.5 µM (inactive). For the same compound, the GI50 in the experiment on HL-60 is < 0.01 µM (active); with UACC-62 it was 30.5 µM (inactive); in the experiment on HT-29, 21.8 µM (inactive); in the experiment on K562 it was 8.85 µM (inactive); with IGROV-1, 32 µM (inactive); with HOP-62 it was 34.1 µM (inactive). The GI50 with Hs-578T is 44.8 µM (inactive); in the experiment on SK-MEL-2 it was 30.5 µM (inactive); in the experiment on MDA-MB-231, 40 µM (inactive); in the experiment with UO-31, 19.2 µM (inactive); with RPMI-8226, 14.6 µM (inactive); in the experiment with PC-3, 35.6 µM (inactive).
As for `c1csc(-c2ccsc2-c2cccs2)c1`, the GI50 in the experiment on U-251 is > 100 µM (inactive); in the experiment with SW-620 it was 80.4 µM (inactive); in the experiment with A498 it was 36 µM (inactive); in the experiment with SNB-75 it was 54.6 µM (inactive); with TK-10, > 100 µM (inactive); in the experiment on HCT-116, 92.9 µM (inactive). In addition, the GI50 in the experiment with SR was 1.18 µM (inactive); in the experiment on HL-60, 30.5 µM (inactive); with UACC-62 it was > 100 µM (inactive); with HT-29 it was > 100 µM (inactive); in the experiment on IGROV-1, > 100 µM (inactive); in the experiment with HOP-62 it was > 100 µM (inactive). Besides, the GI50 with Hs-578T is 52.8 µM (inactive); in the experiment on UO-31 it was 39.5 µM (inactive); with RPMI-8226 it was 16.8 µM (inactive); with NCI-H522, 31.5 µM (inactive).
Consider `COC(=O)c1cc(S(=O)(=O)NC2=NNC(C)CN2)c(S)cc1Cl` (stereo not given), for which the GI50 in the experiment on U-251 is 37.4 µM (inactive); in the experiment on SW-620, 42.3 µM (inactive); in the experiment on A498, 34.5 µM (inactive); with SNB-75, 24.7 µM (inactive); in the experiment on TK-10, > 100 µM (inactive); with HCT-116, 30.6 µM (inactive). The GI50 in the experiment with SR is 37.5 µM (inactive); in the experiment on HL-60, > 100 µM (inactive); with UACC-62, 47 µM (inactive); in the experiment on HT-29, 42.7 µM (inactive); with K562, 47.1 µM (inactive); in the experiment with IGROV-1, 29.6 µM (inactive). The GI50 was > 100 µM (inactive) in the experiment with HOP-62; 26 µM (inactive) in the experiment with SK-MEL-2; > 100 µM (inactive) with MDA-MB-231; 99.3 µM (inactive) in the experiment with UO-31; 31.2 µM (inactive) with RPMI-8226; 19.5 µM (inactive) in the experiment with NCI-H522. For the same compound, the GI50 with PC-3 is 42.8 µM (inactive).
Regarding `COc1ccc2cc(C(=O)Nc3ccc(O)c(C(=O)O)c3)ccc2c1OC`, the GI50 in the experiment with U-251, with SW-620, in the experiment on SNB-75, in the experiment with TK-10, with HCT-116 and in the experiment on SR was > 100 µM (inactive) throughout. Also, the GI50 in the experiment with HL-60, in the experiment on UACC-62, in the experiment on HT-29, in the experiment with K562, with IGROV-1 and in the experiment with HOP-62 was > 100 µM (inactive) in each case. Further, the GI50 was > 100 µM (inactive) in the experiment on SK-MEL-2; > 100 µM (inactive) in the experiment on MDA-MB-231; > 100 µM (inactive) in the experiment with UO-31; > 100 µM (inactive) in the experiment with RPMI-8226; 49.4 µM (inactive) in the experiment with NCI-H522; > 100 µM (inactive) with PC-3.
